18 compounds from PubChem BioAssay (NCI) can be followed below.

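Where inhibition never reached the appropriate level, the endpoint shown equals the highest concentration tested. Otherwise, values were interpolated linearly from a five-concentration, 48-hour dose response in 96-well plates. TGI: total growth inhibition.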 Where only a bound is given, the exact number is not on record here.

One may read the TGI as the concentration giving total growth inhibition. A high value points to less potent growth arrest.

In the first assay the test system is MALME-3M melanoma. As to the kind of experiment: DTP human tumour cell line panel, 48 h.
`Cc1c(/C=N\NC(=S)N2CCN(C(=S)N/N=C\c3c(C)n(C)n(-c4ccccc4)c3=O)CC2)c(=O)n(-c2ccccc2)n1C` yielded a TGI of more than 100 µM.

Turning to `Cc1cc2c(c(C(=O)NCCC(=O)O)c1)Oc1c(cc(C)cc1C(=O)NCCC(=O)O)S2`, the concentration for total growth inhibition (TGI) is more than 100 µM.

`CCN(CC)CCn1c2cc3c(cc2c(=O)c2cccnc21)OCCO3` registered a TGI of more than 10 µM.

For a further assay, the system named is OVCAR-5 ovarian. The assay is described as follows: DTP human tumour cell line panel, 48 h.
Take `Cc1ccc2c(c1)nc(N)n[n+]2[O-]`: the TGI was more than 100 µM.

The compound `Cc1cn(C2CC(N)C(CN)O2)c(=O)[nH]c1=O` (stereo not given) returned a TGI of more than 100 µM.

With `Nc1nc2ncc(SCc3ccc(C(=O)NC(CCC(=O)O)C(=O)O)cc3)cc2c(=O)[nH]1` (stereo not given), the TGI is more than 100 µM.

As to `COc1ccc2c(c1)c1c(n2CCN2CCOCC2)-c2ccccc2CC1`, the concentration for total growth inhibition (TGI) was more than 100 µM.

As to `CCOC(=O)c1cc(C2(O)CCN(Cc3ccccc3)C2=O)c(-c2cc(C)no2)[nH]1` (stereo not given), the TGI is more than 100 µM.

For the compound `Clc1nc(Cl)nc(NC23CC4CC(CC(C4)C2)C3)n1`, the total growth inhibition concentration (TGI) was 39.5 µM.

In the case of `OCC1CCCC(n2cnc3c(=S)nc[nH]c32)O1` (stereo not given), the TGI was more than 100 µM.

In the case of `COc1cc2oc(-c3ccc(O)cc3)c(OC3OC(C)C(O)C(O)C3O)c(=O)c2c(O)c1OC` (stereo not given), the TGI is more than 100 µM.

Compound `CC1(C)CC2(C)CC1CC2O` (stereo not given) had a TGI of more than 100 µM.

The compound `Clc1cc(N/N=C(/c2ccccc2)c2ncccn2)ncn1` gave a TGI of more than 100 µM.

In turn, `N#CC1=C(N)OC2=C(CSc3ccccc32)C1c1ccc(Br)cc1` (stereo not given) gave a TGI of 32.7 µM.

Regarding `O=C1CC(C(O)CO)CC(=O)N1` (stereo not given), the TGI is more than 100 µM.

The compound `O=c1oc2ccccc2c(O)c1C(c1cc(OCc2ccccc2)cc(OCc2ccccc2)c1)c1c(O)c2ccccc2oc1=O` had a TGI of 34.5 µM.

Compound `Cc1c(/C=N\NC(=S)N2CCN(C(=S)N/N=C\c3c(C)n(C)n(-c4ccccc4)c3=O)CC2)c(=O)n(-c2ccccc2)n1C` yielded a TGI of more than 100 µM.

In turn, `Cc1cc2c(c(C(=O)NCCC(=O)O)c1)Oc1c(cc(C)cc1C(=O)NCCC(=O)O)S2` returned a TGI of more than 100 µM.

The next assay deals with SK-MEL-28 melanoma. The assay is described as follows: DTP human tumour cell line panel, 48 h.
In the case of `Cc1ccc2c(c1)nc(N)n[n+]2[O-]`, the TGI is more than 100 µM.

The compound `Cc1cn(C2CC(N)C(CN)O2)c(=O)[nH]c1=O` (stereo not given) yielded a TGI of more than 100 µM.

For the compound `Nc1nc2ncc(SCc3ccc(C(=O)NC(CCC(=O)O)C(=O)O)cc3)cc2c(=O)[nH]1` (stereo not given), the concentration for total growth inhibition (TGI) is more than 100 µM.

For `COc1ccc2c(c1)c1c(n2CCN2CCOCC2)-c2ccccc2CC1`, the TGI was more than 100 µM.

For the compound `CCOC(=O)c1cc(C2(O)CCN(Cc3ccccc3)C2=O)c(-c2cc(C)no2)[nH]1` (stereo not given), the TGI is more than 100 µM.

`Clc1nc(Cl)nc(NC23CC4CC(CC(C4)C2)C3)n1` came in with a TGI of 36.8 µM.

`CCOC(=O)c1cc(=C2\CCN(CC(C)CC)C2=S)/c(=C(/O)CC)[nH]1` (stereo not given) gave a TGI of 34.8 µM.

Turning to `OCC1CCCC(n2cnc3c(=S)nc[nH]c32)O1` (stereo not given), the TGI was more than 100 µM.

As to `COc1cc2oc(-c3ccc(O)cc3)c(OC3OC(C)C(O)C(O)C3O)c(=O)c2c(O)c1OC` (stereo not given), the TGI is more than 100 µM.

Consider `CC1(C)CC2(C)CC1CC2O` (stereo not given), for which the TGI is more than 100 µM.

With `Clc1cc(N/N=C(/c2ccccc2)c2ncccn2)ncn1`, the TGI was more than 100 µM.

`N#CC1=C(N)OC2=C(CSc3ccccc32)C1c1ccc(Br)cc1` (stereo not given) came in with a concentration for total growth inhibition (TGI) of 28 µM.

In turn, `O=C1CC(C(O)CO)CC(=O)N1` (stereo not given) registered a TGI of more than 100 µM.

Compound `Cc1c(Cl)ccc2c(=O)c3cccc(CC(=O)O)c3oc12` returned a TGI of more than 100 µM.

`O=c1oc2ccccc2c(O)c1C(c1cc(OCc2ccccc2)cc(OCc2ccccc2)c1)c1c(O)c2ccccc2oc1=O` gave a TGI of 51.8 µM.

Compound `Cc1cc2c(c(C(=O)NCCC(=O)O)c1)Oc1c(cc(C)cc1C(=O)NCCC(=O)O)S2` registered a TGI of more than 100 µM.

In turn, `CCN(CC)CCn1c2cc3c(cc2c(=O)c2cccnc21)OCCO3` registered a TGI of more than 10 µM.

The next assay relates to SK-MEL-5 melanoma. As to the kind of experiment: DTP human tumour cell line panel, 48 h.
Take `Cc1ccc2c(c1)nc(N)n[n+]2[O-]`: the TGI was more than 100 µM.

`Cc1cn(C2CC(N)C(CN)O2)c(=O)[nH]c1=O` (stereo not given) registered a TGI of more than 100 µM.

The compound `Nc1nc2ncc(SCc3ccc(C(=O)NC(CCC(=O)O)C(=O)O)cc3)cc2c(=O)[nH]1` (stereo not given) returned a TGI of more than 100 µM.

`COc1ccc2c(c1)c1c(n2CCN2CCOCC2)-c2ccccc2CC1` registered a TGI of 46.3 µM.

With `CCOC(=O)c1cc(C2(O)CCN(Cc3ccccc3)C2=O)c(-c2cc(C)no2)[nH]1` (stereo not given), the TGI is more than 100 µM.

`Clc1nc(Cl)nc(NC23CC4CC(CC(C4)C2)C3)n1` came in with a TGI of 26.6 µM.

`OCC1CCCC(n2cnc3c(=S)nc[nH]c32)O1` (stereo not given): the TGI was more than 100 µM.

The compound `COc1cc2oc(-c3ccc(O)cc3)c(OC3OC(C)C(O)C(O)C3O)c(=O)c2c(O)c1OC` (stereo not given) came in with a TGI of more than 100 µM.

For the compound `CC1(C)CC2(C)CC1CC2O` (stereo not given), the total growth inhibition concentration (TGI) is more than 100 µM.

Compound `Clc1cc(N/N=C(/c2ccccc2)c2ncccn2)ncn1` returned a TGI of more than 100 µM.

The compound `N#CC1=C(N)OC2=C(CSc3ccccc32)C1c1ccc(Br)cc1` (stereo not given) yielded a concentration for total growth inhibition (TGI) of 25.7 µM.

In turn, `O=C1CC(C(O)CO)CC(=O)N1` (stereo not given) gave a TGI of more than 100 µM.

The compound `Cc1c(Cl)ccc2c(=O)c3cccc(CC(=O)O)c3oc12` returned a TGI of more than 100 µM.

On to `O=c1oc2ccccc2c(O)c1C(c1cc(OCc2ccccc2)cc(OCc2ccccc2)c1)c1c(O)c2ccccc2oc1=O`, for which the TGI turned out to be 21.2 µM.

For the compound `Cc1c(/C=N\NC(=S)N2CCN(C(=S)N/N=C\c3c(C)n(C)n(-c4ccccc4)c3=O)CC2)c(=O)n(-c2ccccc2)n1C`, the TGI was more than 100 µM.
